Publication PMC9513234, “Synthesis and Biological Evaluation of Termini-Modified and Cyclic Variants of the Connexin43 Inhibitor Peptide5” (Frontiers in Chemistry, 2022)

Tests used:
[1] = cited from earlier work
gap junctions = details: in vitro, higher concentrations; ref O’Carroll et al., 2008; cited from earlier work
[2] = Human serum stability assay (RP-HPLC)
Procedure: We then evaluated the N-methylated variants 7 and 8, D amino acid variants 9 and 10, and the two carbo cyclic peptides 39 and 42. Each peptide was incubated with 25% aq. human serum at 37°C, and 6 aliquots were extracted within 48 h. The stability of each peptide upon exposure to human serum was then analyzed via analytical RP HPLC, and the amount of peptide still present at each time point was recorded relative to t = 0 h.
Whole blood was collected from a healthy volunteer and stored in a covered test tube and was allowed to clot by leaving it undisturbed at r.t. for ca. 1 h. The clot was removed by centrifugation at 1,000-2,000 x g for 10 min and the resulting supernatant was designated as the serum. The serum was collected and stored in 0.5 mL aliquots, whereby the samples were stored at - 20 °C.
200 µM concentration of peptide was incubated in 25% aq. human serum (1.7 mL) and left to shake at 37 °C. Aliquots of human serum-peptide mixture (270 µL) were taken at given times (0 h, 1 h, 4 h, 8 h, 24 h, and 48 h) and threefold excess of acetonitrile (810 µL) was added to the aliquot and left for 1 h at 0 °C. The samples underwent centrifugation (14,500 rpm) for 30 min at r.t. and the supernatant was subsequently collected. Upon evaporation of the solvents, the resulting dry, pale-yellow residue was dissolved in water containing 0.1 % TFA.
The dissolved solution was analysed via analytical RP HPLC and the quantity of the peptide was expressed as a percentage relative to the peptide peak area obtained at time zero (i.e. 100% peptide amount at t = 0 h). A scatterplot graph representing percentage of peptide versus time was generated.

hemichannels = test system: hemichannels; parameters: method as in O’Carroll et al., 2008; details: in vitro; ref O’Carroll et al., 2008; cited from earlier work
[3] = test system: gap junctions in hCMVEC cells; details: 100 µM, mean ± SEM
Procedure: We next investigated the ability of peptide5 variants to inhibit gap junctional communication using a scrape loading assay. In this assay, the cells in culture are loaded with a dye (Lucifer Yellow dilithium salt (LY), M.W. 457.25 Da) of molecular size (<1 kDa) that is able to transit through the gap junctions and the degree of dye spread is then measured by counting the number of cells that contain LY (Supplementary Material, Method 4) ^1. Consistent with our previous study, peptide5 (1) and Cbx reduced the degree of dye spread following incubation with LY (56.16 ± 2.1%; p < 0.0001 and 16.2 ± 1.1%; p < 0.0001, respectively) compared to the untreated controls (Figure 12).
Human cerebral microvascular endothelial cells (hCMVEC) were purchased from Applied Biological Materials (ABM) Inc, Canada (cat # T0259) (O'Carroll et al., 2015). Cells were cultured in 1 μg/cm^2 collagen I (Gibco) coated T75 flasks from Corning (NY, USA). The growth media was M199 media (Gibco), supplemented with 10% FBS, 1 μg/mL hydrocortisone (Sigma), 3 μg/mL human FGF (Peprotech), 10 μg/mL human EGF (Peprotech), 10 μg/mL heparin (Sigma), 2 mM Glutamax (Gibco), and 80 μM butyryl cAMP (Sigma).
For experiments hCMVECs cells were plated M199 media at a density of 4 x 10^5 cells per well in a collagen coated (1 µg/cm^2) 12-well plate the day prior to the experiment to ensure a confluent monolayer of hCMVECs. On the day of the experiment cells were pre-incubated in carbenoxolone, (100 µM) Peptide5 (5–100 µM) or modified analogues (100 µM) or M199 as a negative control. Cells were washed three times with phosphate buffered saline (PBS) without Ca^2+ or Mg^2+ and incubated in 0.05% Lucifer Yellow (LY) (Sigma), a fluorescent dye that is transferred through coupled gap junction channels (el-Fouly, Trosko, & Chang, 1987), and scrape-wounded with a size 10 carbon steel surgical blade (Swann-Morton, England). Following a 5 minute incubation at 37 °C in 95% O2 and 5% CO2 without light, the 0.05% LY solution was removed. Cells were rinsed four times with HBSS containing Ca^2+ ^+, and then fixed in 4% paraformaldehyde (PFA) in PBS at pH 7.4 for 10 minutes at room temperature. Cells were then washed 3 times in PBS to remove PFA before fluorescent imaging. Fluorescent images were visualized using a Nikon TE2000E inverted fluorescent microscope (10x magnification, 0.3 numerical aperture), and captured using a Digital Sight CCD camera and Eclipse Net software (Nikon). Three images within each well from three independent experiments were taken for analysis, and the total number of cells showing dye uptake from those that had been loaded were counted manually by masked observers. Each peptide was tested in at least an n of 2 separate experiments.

[4] = parameters: method as in Kumagai et al., 1991; details: ref Kumagai et al., 1991; cited from earlier work

| Substance | half-life in rat serum [1] [min] | concentration inhibiting both gap junctions and hemichannels (gap junctions) [µM] | time to complete degradation in human serum [2] [h] | concentration selectively inhibiting hemichannels (hemichannels) [µM] | LY dye spread (number of LY-positive cells) as percentage of untreated control [3] [%] | increase in binding compared to its linear form [4] [fold] |
| --- | --- | --- | --- | --- | --- | --- |
| H-VDCFLSRPTEKT-OH [peptide5, H2N-VDCFLSRPTEKT-CO2H] | 5 | 500 | ≤ 10 | ≥ 5 | 56.16 ± 2.1 | – |
| cilengitide | – | – | – | – | – | 10 |
